Where two headings read alike, the source gives them in different places.
Assays:
Type in all cases: in vivo
[1] = system: Corn Earworm (CEW) (Helicoverpa zea); experiment: Bioassay on corn earworm (CEW), 128-well diet tray assay; settings: Helicoverpa zea, read-out: % Mortality CEW 50 μg/cm^2
Outline: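 Activity was scored as percent larval mortality per well, averaged across eight wells and reported on a rating scale. Diet trays (128-well) were kept at 25° C with 14:10 light-dark for five to seven days.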

[2] = system: Beet Armyworm (BAW) (Spodoptera exigua); experiment: Bioassay on beet armyworm (BAW), 128-well diet tray assay; settings: Spodoptera exigua, read-out: % Mortality BAW 50 μg/cm^2
[3] = system: Green Peach Aphid (GPA) (Myzus persicae); experiment: Bioassay on green peach aphid (GPA), foliar spray on cabbage seedlings; settings: read-out: % Mortality GPA 200 ppm
Procedure: Certain molecules disclosed in this document were tested against GPA using procedures described in the following example. In the reporting of the results, the “GPA Rating Table” was used (See Table Section).
Cabbage seedlings grown in 3-inch pots, with 2-3 small (3-5 cm) true leaves, were used as test substrate. The seedlings were infested with 20-50 GPA (wingless adult and nymph stages) one day prior to chemical application. Four pots with individual seedlings were used for each treatment. Test compounds (2 mg) were dissolved in 2 mL of acetone/methanol (1:1) solvent, forming stock solutions of 1000 ppm test compound. […] A hand-held aspirator-type sprayer was used for spraying a solution to both sides of […] leaves until runoff. Reference plants (solvent check) were sprayed with the diluent only containing 20% by volume of acetone/methanol (1:1) solvent. Treated plants were held in a holding room for three days at approximately 25° C. and ambient relative humidity (RH) prior to grading. Evaluation was conducted by counting the number of live aphids per plant under a microscope. […] Corrected % Control=100*(X−Y)/X • where • X=No. of live aphids on solvent check plants and • Y=No. of live aphids on treated plants
The results are indicated in the table entitled “Table 5: Biological Results” (See Table Section).

Compound	mortality at 50 µg/cm2 ([1]; corn earworm, 50 μg/cm^2) [%]	mortality at 50 µg/cm2 ([2]; beet armyworm, 50 μg/cm^2) [%]	mortality at 200 ppm ([3]; green peach aphid, 200 ppm) [%]	mortality at 50 µg/cm2 [1] [%]	mortality at 50 µg/cm2 [2] [%]	mortality at 200 ppm [3] [%]
Cc1cccc(C)c1/N=C(/N/N=C/c1ccc(-c2ncn(-c3ccc(OC(F)(F)F)cc3)n2)cc1)SCOC(=O)OC(C)C [Compound 24C]	50 to 100	50 to 100	0 to 80	–	–	–
Cc1cccc(C)c1/N=C(/N/N=C/c1ccc(-c2ncn(-c3ccc(OC(F)(F)F)cc3)n2)cc1)SCOC(=O)C(C)C [Compound 25C]	50 to 100	50 to 100	0	–	–	–
COc1cc(C)c(/N=C(/N/N=C/c2ccc(-c3ncn(-c4ccc(OC(F)(F)F)cc4)n3)cc2)SCOC(=O)C(C)C)c(C)c1 [Compound 27C]	50 to 100	50 to 100	0 to 80	–	–	–
COc1cc(C)c(/N=C(/N/N=C/c2ccc(-c3ncn(-c4ccc(OC(F)(F)F)cc4)n3)cc2)SCOC(=O)CNC(=O)OCc2ccccc2)c(C)c1 [Compound 28C]	–	–	–	50 to 100	50 to 100	0 to 80
CCOCC(=O)OCS/C(=N\c1c(C)cc(OC)cc1C)N/N=C/c1ccc(-c2ncn(-c3ccc(OC(F)(F)F)cc3)n2)cc1 [Compound 29C]	50 to 100	50 to 100	0 to 80	–	–	–
Cc1cccc(C)c1/N=C(/N/N=C/c1ccc(-c2ncn(-c3ccc(OC(F)(F)F)cc3)n2)cc1)SCOC(=O)CNC(=O)OC(C)(C)C [Compound 30C]	50 to 100	50 to 100	0 to 80	–	–	–
CC(=O)OCS/C(=N\c1c(C)cccc1C)N/N=C/c1ccc(-c2ncn(-c3ccc(OC(F)(F)F)cc3)n2)cc1 [Compound 31C]	50 to 100	50 to 100	0 to 80	–	–	–
COc1cc(Cl)c(/N=C(/N/N=C/c2ccc(-c3ncn(-c4ccc(OC(F)(F)F)cc4)n3)cc2)SCOC(=O)OC(C)C)c(Cl)c1 [Compound 33C]	50 to 100	50 to 100	0 to 80	–	–	–
Cc1cccc(C)c1/N=C(/N/N=C/c1ccc(-c2ncn(-c3ccc(OC(F)(F)F)cc3)n2)cc1)SCOC(=O)C1CCCC1 [Compound 35C]	50 to 100	50 to 100	0 to 80	–	–	–
Cc1cccc(C)c1/N=C(/N/N=C/c1ccc(-c2ncn(-c3ccc(OC(F)(F)F)cc3)n2)cc1)SCOC(=O)C(C)(C)C [Compound 36C]	50 to 100	50 to 100	0	–	–	–
COc1cc(C)c(/N=C(/N/N=C/c2ccc(-c3ncn(-c4ccc(OC(F)(F)C(F)(F)F)cc4)n3)cc2)SCOC(=O)C(C)C)c(C)c1 [Compound 37C]	50 to 100	50 to 100	0	–	–	–
COc1cc(C)c(/N=C(/N/N=C/c2ccc(-c3ncn(-c4ccc(OC(F)(F)F)cc4)n3)cc2)SCOC(=O)C(C)OCC(F)(F)F)c(C)c1 (stereo not drawn) [Compound 38C]	50 to 100	50 to 100	0	–	–	–
COc1cc(C)c(/N=C(/N/N=C/c2ccc(-c3ncn(-c4ccc(OC(F)(F)F)cc4)n3)cc2)SCOC(=O)C(C)(C)C)c(C)c1 [Compound 40C]	50 to 100	50 to 100	0 to 80	–	–	–
COCCOC(C)C(=O)OCS/C(=N\c1c(C)cccc1C)N/N=C/c1ccc(-c2ncn(-c3ccc(OC(F)(F)F)cc3)n2)cc1 (stereo not drawn) [Compound 41C]	50 to 100	50 to 100	0	–	–	–
COCCOC(C)C(=O)OCS/C(=N\c1c(C)cc(OC)cc1C)N/N=C/c1ccc(-c2ncn(-c3ccc(OC(F)(F)F)cc3)n2)cc1 (stereo not drawn) [Compound 42C]	50 to 100	50 to 100	0	–	–	–
COc1cc(C)c(/N=C(/N/N=C/c2ccc(-c3ncn(-c4ccc(OC(F)(F)F)cc4)n3)cc2)SCOC(=O)C2CCCC2)c(C)c1 [Compound 43C]	50 to 100	50 to 100	0 to 80	–	–	–
COc1cc(C)c(/N=C(/N/N=C/c2ccc(-c3ncn(-c4ccc(OC(F)(F)F)cc4)n3)cc2)SCOC(=O)C2CCCO2)c(C)c1 (stereo not drawn) [Compound 44C]	50 to 100	50 to 100	0	–	–	–
COc1cc(C)c(/N=C(\N/N=C/c2ccc(-c3ncn(-c4ccc(C(F)(F)F)cc4)n3)cc2)SCOC(=O)C(C)C)c(C)c1 [Compound 46C]	50 to 100	50 to 100	0	–	–	–

Compound	mortality at 50 µg/cm2 ([1]; corn earworm, 50 μg/cm^2) [%]	mortality at 50 µg/cm2 ([2]; beet armyworm, 50 μg/cm^2) [%]	mortality at 200 ppm ([3]; green peach aphid, 200 ppm) [%]	mortality at 50 µg/cm2 [1] [%]	mortality at 50 µg/cm2 [2] [%]	mortality at 200 ppm [3] [%]
Cc1cccc(C)c1/N=C(/N/N=C/c1ccc(-c2ncn(-c3ccc(OC(F)(F)F)cc3)n2)cc1)SCC(=O)O [Compound 47C]	50 to 100	50 to 100	0 to 80	–	–	–
Cc1cccc(C)c1/N=C(/N/N=C/c1ccc(-c2ncn(-c3ccc(OC(F)(F)C(F)(F)F)cc3)n2)cc1)SCC(=O)O [Compound 49C]	50 to 100	50 to 100	0 to 80	–	–	–
COc1cc(C)c(/N=C(/N/N=C/c2ccc(-c3ncn(-c4ccc(OC(F)(F)C(F)(F)F)cc4)n3)cc2)SCC(=O)O)c(C)c1 [Compound 51C]	50 to 100	50 to 100	0	–	–	–
COc1ccc(C(C)/N=C(/N/N=C/c2ccc(-c3ncn(-c4ccc(OC(F)(F)F)cc4)n3)cc2)SCC(=O)O)cc1 (stereo not drawn) [Compound 52C]	0	0 to 50	0 to 80	–	–	–
COc1ccc(C(C)/N=C(/N/N=C/c2ccc(-c3ncn(-c4ccc(OC(F)(F)F)cc4)n3)cc2)SCC(=O)O)cc1F (stereo not drawn) [Compound 53C]	0	0 to 50	0 to 80	–	–	–
CC(/N=C(/N/N=C/c1ccc(-c2ncn(-c3ccc(OC(F)(F)F)cc3)n2)cc1)SCC(=O)O)c1ccccc1 (stereo not drawn) [Compound 54C]	50 to 100	50 to 100	0	–	–	–
Cc1cccc(C)c1/N=C(/N/N=C/c1ccc(-c2ncn(-c3ccc(OC(F)(F)F)cc3)n2)cc1)SCC(=O)NCC(C)C [Compound 55C]	50 to 100	50 to 100	0	–	–	–
Cc1cccc(C)c1/N=C(/N/N=C/c1ccc(-c2ncn(-c3ccc(OC(F)(F)F)cc3)n2)cc1)SCC(=O)N1CCN(C(=O)OC(C)(C)C)CC1 [Compound 57C]	50 to 100	50 to 100	0 to 80	–	–	–
Cc1cccc(C)c1/N=C(/N/N=C/c1ccc(-c2ncn(-c3ccc(OC(F)(F)F)cc3)n2)cc1)SCC(=O)NCCCNC(=O)OC(C)(C)C [Compound 58C]	50 to 100	50 to 100	0 to 80	–	–	–
Cc1cccc(C)c1/N=C(/N/N=C/c1ccc(-c2ncn(-c3ccc(OC(F)(F)F)cc3)n2)cc1)SCC(=O)NCC(NC(=O)OC(C)(C)C)C(=O)O (stereo not drawn) [Compound 59C]	50 to 100	50 to 100	0 to 80	–	–	–
COc1cc(C)c(/N=C(/N/N=C/c2ccc(-c3ncn(-c4ccc(OC(F)(F)F)cc4)n3)cc2)SCC(=O)NCCCNC(=O)OC(C)(C)C)c(C)c1 [Compound 60C]	50 to 100	50 to 100	0	–	–	–
Cc1cccc(C)c1/N=C(/N/N=C/c1ccc(-c2ncn(-c3ccc(OC(F)(F)F)cc3)n2)cc1)SCC(=O)NC[C@@H]1CCCNC1 [Compound 62C, (1Z,2E)-2-oxo-2-(((R)-piperidin-3-ylmethyl)amino)ethyl N-(2,6-dimethylphenyl)-2-(4-(1-(4-(trifluoromethoxy)phenyl)-1H-1,2,4-triazol-3-yl)benzylidene)hydrazinecarbimidothioate trifluoroacetic acid]	50 to 100	50 to 100	0 to 80	–	–	–
Cc1cccc(C)c1/N=C(/N/N=C/c1ccc(-c2ncn(-c3ccc(OC(F)(F)F)cc3)n2)cc1)SCC(=O)NCC(N)C(=O)O (stereo not drawn) [Compound 63C]	50 to 100	50 to 100	0	–	–	–
COc1cc(C)c(/N=C(/N/N=C/c2ccc(-c3ncn(-c4ccc(OC(F)(F)F)cc4)n3)cc2)SCC(=O)NCCCN)c(C)c1 [Compound 64C]	50 to 100	50 to 100	0	–	–	–
COc1cc(C)c(/N=C(/N/N=C/c2ccc(-c3ncn(-c4ccc(OC(F)(F)F)cc4)n3)cc2)SCC(=O)C2CCNCC2)c(C)c1 [Compound 65C]	50 to 100	50 to 100	0 to 80	–	–	–
Cc1cccc(C)c1/N=C(/N/N=C/c1ccc(-c2ncn(-c3ccc(OC(F)(F)F)cc3)n2)cc1)SCC(=O)NCCCN [Compound 66C]	50 to 100	50 to 100	0 to 80	–	–	–
Cc1cccc(C)c1/N=C(/N/N=C/c1ccc(-c2ncn(-c3ccc(OC(F)(F)F)cc3)n2)cc1)SCC(=O)N1CCNCC1 [Compound 67C]	50 to 100	50 to 100	0	–	–	–

— patent US8916183B2, “Pesticidal compositions and processes related thereto” (priority 2012, dated 2014)
